Results from ChEMBL document CHEMBL1201862, “PubChem BioAssay data set” (2004).
Calls of active or inactive are those of the source.

Key:
BJ [1] = test: cells; assay type: functional, cell-based; conditions: Homo sapiens
BJ [2] = test: BJ-TERT-LT-ST fibroblast viability loss – cell-based, RAS-independent, luminescence, dose response (AID 1935); assay type: functional; conditions: Homo sapiens;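 further: BJ fibroblasts immortalized with TERT plus LT and ST oncogenes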
BJ [3] = test: growth inhibition of engineered Ras-driven BJ cells – cell-based, alamar blue fluorescence, cherrypicked samples, dose response (AID 2631); assay type: functional; conditions: Homo sapiens;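 further: confirmatory dose-response assay in RAS-dependent BJ fibroblasts engineered with TERT, LT and ST, with cytotoxicity read by fluorescence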
BJ [4] = test: BJ-TERT fibroblast viability loss – cell-based, RAS-independent, luminescence, dose response (AID 1933); assay type: functional; conditions: Homo sapiens
[5] = DRD fibroblast viability loss – cell-based, non-viral oncogenic, luminescence, dose response (AID 1934); assay type: functional; conditions: Homo sapiens
Vero [6] = test: cells; assay type: functional, cell-based; conditions: Chlorocebus sabaeus
Vero [7] = test: cells; assay type: functional; conditions: Chlorocebus sabaeus
[8] = Trypanosoma cruzi growth suppression in host cells – NIH3T3 host cells, beta-gal luminescence, confirmation (AID 2044); assay type: functional, cell-based;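 further: intracellular parasites grown in NIH/3T3 mouse fibroblasts as host cells; luminescent beta-galactosidase reporter signal from transgenic T. cruzi replicating inside host cells; inhibitors lower the luminescence signal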
Beta Lactamase = Beta Lactamase (Pseudomonas aeruginosa, UniProt Q932Y6); test: BLA reporter interference, concentration series – BLA reporter cells, FRET fluorescence, artefact control for TLR9-MyD88 binding inhibitor project, dose response (AID 588341); assay type: cell-based;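 further: cell based assay in CHO-K1 cells stably expressing beta-lactamase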
Sequence of Beta Lactamase (Q932Y6 whole entry): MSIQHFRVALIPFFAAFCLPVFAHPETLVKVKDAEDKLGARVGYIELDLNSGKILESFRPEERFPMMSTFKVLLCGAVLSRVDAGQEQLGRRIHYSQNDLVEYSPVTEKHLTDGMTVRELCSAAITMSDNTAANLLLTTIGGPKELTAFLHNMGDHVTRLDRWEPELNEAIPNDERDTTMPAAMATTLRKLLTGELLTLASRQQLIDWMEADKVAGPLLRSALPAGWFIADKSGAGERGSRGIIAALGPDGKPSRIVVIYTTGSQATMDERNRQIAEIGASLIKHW

[9] = reduction of Shn3 3'UTR-driven luciferase in osteoblasts – cell-based, Clone20 osteoblasts, firefly luciferase, cherry-picked, dose response (AID 624132); assay type: functional;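 further: firefly luciferase luminescence from reporter carrying the Shn3 3'UTR in osteoblasts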
Beta-galactosidase = Beta-galactosidase (Escherichia coli, UniProt Q8VNN2); test: PubChem AID 485352; assay type: functional
Sequence of Beta-galactosidase (Q8VNN2 whole entry): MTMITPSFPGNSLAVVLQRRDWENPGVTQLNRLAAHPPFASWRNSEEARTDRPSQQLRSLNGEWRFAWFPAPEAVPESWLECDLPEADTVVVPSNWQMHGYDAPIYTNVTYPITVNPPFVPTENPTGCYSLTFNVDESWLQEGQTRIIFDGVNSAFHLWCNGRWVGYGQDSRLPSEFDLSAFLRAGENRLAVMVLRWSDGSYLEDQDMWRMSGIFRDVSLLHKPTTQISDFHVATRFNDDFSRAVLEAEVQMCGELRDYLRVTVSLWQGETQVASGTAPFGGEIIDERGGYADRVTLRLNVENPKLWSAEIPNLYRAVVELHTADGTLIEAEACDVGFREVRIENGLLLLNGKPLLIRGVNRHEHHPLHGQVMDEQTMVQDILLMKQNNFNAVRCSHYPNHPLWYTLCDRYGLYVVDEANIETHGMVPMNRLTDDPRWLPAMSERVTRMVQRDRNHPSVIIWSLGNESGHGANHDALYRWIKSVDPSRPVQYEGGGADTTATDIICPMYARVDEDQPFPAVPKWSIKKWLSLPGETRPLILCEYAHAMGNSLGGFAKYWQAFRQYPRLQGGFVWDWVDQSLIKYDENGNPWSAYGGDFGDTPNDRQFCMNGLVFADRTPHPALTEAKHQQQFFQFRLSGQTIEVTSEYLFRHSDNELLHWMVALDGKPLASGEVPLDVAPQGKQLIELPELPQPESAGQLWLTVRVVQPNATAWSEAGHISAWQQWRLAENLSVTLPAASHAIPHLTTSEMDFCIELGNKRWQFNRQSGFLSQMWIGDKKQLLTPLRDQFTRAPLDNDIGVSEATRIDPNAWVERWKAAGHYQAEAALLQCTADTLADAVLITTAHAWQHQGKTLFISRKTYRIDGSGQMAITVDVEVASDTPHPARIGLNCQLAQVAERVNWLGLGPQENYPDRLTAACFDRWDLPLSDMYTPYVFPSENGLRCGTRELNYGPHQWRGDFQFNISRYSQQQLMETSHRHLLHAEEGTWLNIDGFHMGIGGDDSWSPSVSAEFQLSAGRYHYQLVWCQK

INS1 = test: INS-1E survival protection against cytokine death – cell-based, luminescence, retest, dose response (AID 449756); assay type: functional; conditions: Rattus norvegicus;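 further: cell death triggered by IL-1 beta plus TNF-alpha plus IFN-gamma mixture; protective hits raise ATP signal compared with cytokine alone wells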
CHO = CHO cell viability loss, potency – luminescence, cytotoxicity control for TLR9-MyD88 binding inhibitor project, dose response (AID 588339); assay type: functional, cell-based, hamster; conditions: Cricetulus griseus;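 further: CHO cells stably coexpressing TLR9 and MyD88 fusions from primary screen; compound exposure lasted 48 hours before viability readout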
HEK293 = test: EBV LMP1 TES2 canonical NF-kB signalling blockers – cell-based, HEK293, luciferase, cherry-pick, dose response (AID 588343); assay type: functional; conditions: Homo sapiens
Protein RecA = target: T1, Protein RecA (Mycobacterium tuberculosis, UniProt P9WHJ3); test: Fluorescence Cell-Free Homogeneous Dose Retest to Identify Inhibitors of RecA-Intein Splicing Activity. [Related pubchem assays (depositor defined):AID2097, AID2223, AID489010, AID492950]; assay type: functional
T1 sequence (P9WHJ3 whole entry): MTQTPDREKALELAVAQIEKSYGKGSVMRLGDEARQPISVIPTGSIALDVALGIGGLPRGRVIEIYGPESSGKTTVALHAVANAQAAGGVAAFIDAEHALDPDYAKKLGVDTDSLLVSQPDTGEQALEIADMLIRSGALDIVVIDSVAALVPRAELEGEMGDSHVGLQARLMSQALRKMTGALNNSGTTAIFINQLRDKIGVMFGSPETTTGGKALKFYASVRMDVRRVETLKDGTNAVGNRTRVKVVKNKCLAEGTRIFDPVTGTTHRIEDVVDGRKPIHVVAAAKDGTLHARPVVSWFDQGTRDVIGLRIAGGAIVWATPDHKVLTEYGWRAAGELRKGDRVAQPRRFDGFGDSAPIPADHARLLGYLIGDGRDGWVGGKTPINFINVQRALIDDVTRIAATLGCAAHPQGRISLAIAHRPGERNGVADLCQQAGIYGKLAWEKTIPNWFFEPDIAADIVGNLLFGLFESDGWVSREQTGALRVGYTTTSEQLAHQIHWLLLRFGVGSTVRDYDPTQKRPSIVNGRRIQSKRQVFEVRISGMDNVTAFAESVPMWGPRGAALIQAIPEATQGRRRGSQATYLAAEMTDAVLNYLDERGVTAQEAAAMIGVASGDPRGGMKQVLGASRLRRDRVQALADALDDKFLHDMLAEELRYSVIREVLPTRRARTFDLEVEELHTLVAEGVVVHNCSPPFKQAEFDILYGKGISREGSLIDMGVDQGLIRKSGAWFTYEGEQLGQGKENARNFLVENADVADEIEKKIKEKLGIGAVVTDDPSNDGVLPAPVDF

[10] = target: T2, Type-1 angiotensin II receptor (Homo sapiens, UniProt P30556); test: antagonism of angiotensin II type 1 receptor – cell-based, uHTS hits, selectivity assay for APJ receptor antagonist project, dose response (AID 463214); assay type: functional;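 further: antagonist potency against angiotensin II stimulated AT1 response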
T2 sequence (P30556 whole entry): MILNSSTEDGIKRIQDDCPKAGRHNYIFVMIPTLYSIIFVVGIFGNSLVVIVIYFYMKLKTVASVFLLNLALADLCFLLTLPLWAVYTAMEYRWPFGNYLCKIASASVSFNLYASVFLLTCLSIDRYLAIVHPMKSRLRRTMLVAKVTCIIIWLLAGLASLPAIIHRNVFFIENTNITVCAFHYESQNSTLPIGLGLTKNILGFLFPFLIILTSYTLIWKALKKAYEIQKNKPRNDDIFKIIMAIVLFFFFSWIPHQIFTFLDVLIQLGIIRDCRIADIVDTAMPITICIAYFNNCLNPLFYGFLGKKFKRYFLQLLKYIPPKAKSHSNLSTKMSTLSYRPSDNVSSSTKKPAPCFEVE

[11] = target: T3, Replicative DNA helicase DnaB (Mycobacterium tuberculosis, UniProt P9WMR3); test: DnaB intein splicing inhibitors, dose response, biochemical, cell-free fluorescence (AID 449749); assay type: functional
T3 sequence (P9WMR3 whole entry): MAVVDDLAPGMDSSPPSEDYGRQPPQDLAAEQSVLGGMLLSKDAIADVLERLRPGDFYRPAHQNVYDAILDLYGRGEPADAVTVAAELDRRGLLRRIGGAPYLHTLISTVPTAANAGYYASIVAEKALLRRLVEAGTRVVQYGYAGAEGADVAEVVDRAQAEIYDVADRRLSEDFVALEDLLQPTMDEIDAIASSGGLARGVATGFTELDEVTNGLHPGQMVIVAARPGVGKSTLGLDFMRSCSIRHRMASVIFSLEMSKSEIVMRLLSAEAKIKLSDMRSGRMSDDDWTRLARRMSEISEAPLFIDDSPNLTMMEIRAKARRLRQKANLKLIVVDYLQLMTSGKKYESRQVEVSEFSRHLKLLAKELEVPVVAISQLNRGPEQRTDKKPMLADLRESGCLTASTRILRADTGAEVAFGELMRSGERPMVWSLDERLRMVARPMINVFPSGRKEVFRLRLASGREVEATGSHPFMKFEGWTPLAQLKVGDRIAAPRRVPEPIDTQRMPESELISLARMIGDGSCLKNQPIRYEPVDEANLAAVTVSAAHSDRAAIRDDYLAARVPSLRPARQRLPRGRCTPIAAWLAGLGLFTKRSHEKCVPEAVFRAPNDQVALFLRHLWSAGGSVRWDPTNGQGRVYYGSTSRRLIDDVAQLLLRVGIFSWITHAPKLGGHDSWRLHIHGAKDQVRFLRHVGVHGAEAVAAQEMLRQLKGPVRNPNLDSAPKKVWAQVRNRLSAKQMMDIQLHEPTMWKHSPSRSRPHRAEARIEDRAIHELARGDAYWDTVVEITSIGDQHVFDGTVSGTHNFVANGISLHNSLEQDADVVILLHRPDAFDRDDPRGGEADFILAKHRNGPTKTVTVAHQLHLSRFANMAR

[12] = non-specific 3'UTR reporter inhibition in Clone20-Shn3RL – cell-based, Renilla luciferase, cherry-picked, counter-screen for Shn3 inhibitor project, dose response (AID 624133); assay type: functional
[13] = loss of viability in HepG2 cells – cell-based, CellTiter-Glo, cherry-picked, cytotoxicity control for Shn3 inhibitor project, dose response (AID 624134); assay type: functional
[14] = NIH3T3 cell viability loss – ATP luminescence, mouse fibroblasts, counter-screen, dose response (AID 2010); assay type: functional, cell-based;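 further: cells exposed to compound for about 90 hours before reading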
[15] = target: UDP-galactopyranose mutase (Mycobacterium tuberculosis, UniProt P9WIQ1); test: Inhibitors of Mycobacterium tuberculosis UDP-galactopyranose mutase (UGM) enzyme Measured in Biochemical System Using Plate Reader - 2105-02_Inhibitor_Dose_CherryPick_Activity. [Related pubchem assays (depositor defined):AID504439]
Sequence of UDP-galactopyranose mutase (P9WIQ1 whole entry): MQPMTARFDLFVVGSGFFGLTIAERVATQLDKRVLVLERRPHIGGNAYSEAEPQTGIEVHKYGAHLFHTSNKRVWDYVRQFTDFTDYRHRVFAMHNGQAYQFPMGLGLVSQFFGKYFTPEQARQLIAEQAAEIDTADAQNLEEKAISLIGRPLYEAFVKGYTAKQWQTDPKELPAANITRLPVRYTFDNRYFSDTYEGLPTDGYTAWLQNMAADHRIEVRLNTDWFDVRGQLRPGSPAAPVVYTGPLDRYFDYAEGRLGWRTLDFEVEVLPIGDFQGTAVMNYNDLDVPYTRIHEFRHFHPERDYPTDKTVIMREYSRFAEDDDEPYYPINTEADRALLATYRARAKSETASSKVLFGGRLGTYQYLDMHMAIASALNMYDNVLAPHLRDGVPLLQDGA

Keap1/Nrf2 = Keap1/Nrf2 (Homo sapiens, UniProt Q14145); test: disruptors of Keap1 binding to Nrf2 peptide – biochemical, fluorescence polarization, cherry-picked samples, dose response (AID 588683)
Sequence of Keap1/Nrf2 (Q16236 whole entry): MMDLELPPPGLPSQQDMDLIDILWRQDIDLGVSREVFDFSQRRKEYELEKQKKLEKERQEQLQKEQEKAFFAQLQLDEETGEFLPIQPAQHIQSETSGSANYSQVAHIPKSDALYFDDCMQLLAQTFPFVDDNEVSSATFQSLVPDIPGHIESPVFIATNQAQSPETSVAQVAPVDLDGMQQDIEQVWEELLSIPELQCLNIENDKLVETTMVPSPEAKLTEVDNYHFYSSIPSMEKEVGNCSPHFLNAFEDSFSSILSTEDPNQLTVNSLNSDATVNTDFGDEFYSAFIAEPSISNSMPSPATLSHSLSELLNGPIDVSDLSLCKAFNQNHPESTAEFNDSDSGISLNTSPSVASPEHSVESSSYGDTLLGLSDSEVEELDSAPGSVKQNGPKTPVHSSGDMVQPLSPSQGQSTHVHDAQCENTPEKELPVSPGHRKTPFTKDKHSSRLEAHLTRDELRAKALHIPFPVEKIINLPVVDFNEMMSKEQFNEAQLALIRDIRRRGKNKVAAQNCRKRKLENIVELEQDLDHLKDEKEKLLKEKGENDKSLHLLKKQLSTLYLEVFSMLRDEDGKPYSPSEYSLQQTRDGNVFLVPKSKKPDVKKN
Sequence of Keap1/Nrf2 (Q14145 whole entry): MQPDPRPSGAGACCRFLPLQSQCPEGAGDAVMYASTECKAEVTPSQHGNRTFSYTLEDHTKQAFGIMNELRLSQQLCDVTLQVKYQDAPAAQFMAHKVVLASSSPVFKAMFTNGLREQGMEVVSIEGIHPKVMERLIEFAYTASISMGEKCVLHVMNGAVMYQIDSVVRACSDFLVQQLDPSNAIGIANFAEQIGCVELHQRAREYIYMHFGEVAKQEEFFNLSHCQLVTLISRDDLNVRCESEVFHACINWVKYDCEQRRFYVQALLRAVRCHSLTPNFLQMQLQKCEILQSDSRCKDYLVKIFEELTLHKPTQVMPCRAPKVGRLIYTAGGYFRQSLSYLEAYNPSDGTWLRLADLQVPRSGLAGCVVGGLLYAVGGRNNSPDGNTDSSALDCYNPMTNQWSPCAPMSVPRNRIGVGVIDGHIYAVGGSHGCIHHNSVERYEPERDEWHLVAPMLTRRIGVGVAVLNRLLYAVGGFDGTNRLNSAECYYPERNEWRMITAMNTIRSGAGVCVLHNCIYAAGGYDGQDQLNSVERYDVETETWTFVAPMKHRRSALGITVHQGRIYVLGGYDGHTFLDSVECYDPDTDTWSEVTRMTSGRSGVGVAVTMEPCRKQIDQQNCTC

HeLa = test: ATP-based viability loss in HeLa cells – cell-based, CellTiter-Glo luminescence, cherry-pick samples, cytotoxicity control for MITF activator project, dose response (AID 540259); assay type: functional; conditions: Homo sapiens
Phosphomannomutase 2 = Phosphomannomutase 2 (Homo sapiens, UniProt O15305); test: Counter screen SAR assay for PMM2 inhibitors via a fluorescence intensity assay. [Related pubchem assays (depositor defined):AID1545, AID1574]
Sequence of Phosphomannomutase 2 (O15305 whole entry): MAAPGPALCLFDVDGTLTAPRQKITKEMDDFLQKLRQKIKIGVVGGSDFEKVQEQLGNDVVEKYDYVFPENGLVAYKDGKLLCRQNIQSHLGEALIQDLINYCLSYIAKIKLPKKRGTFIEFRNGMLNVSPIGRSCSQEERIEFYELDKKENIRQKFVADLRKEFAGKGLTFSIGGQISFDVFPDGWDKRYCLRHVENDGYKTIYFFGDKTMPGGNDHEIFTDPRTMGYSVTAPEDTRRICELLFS

[16] = target: T4, Mannose-6-phosphate isomerase (Homo sapiens, UniProt P34949); test: phosphomannose isomerase inhibition – biochemical, fluorescence intensity, confirmation (AID 1535)
T4 sequence (P34949 whole entry): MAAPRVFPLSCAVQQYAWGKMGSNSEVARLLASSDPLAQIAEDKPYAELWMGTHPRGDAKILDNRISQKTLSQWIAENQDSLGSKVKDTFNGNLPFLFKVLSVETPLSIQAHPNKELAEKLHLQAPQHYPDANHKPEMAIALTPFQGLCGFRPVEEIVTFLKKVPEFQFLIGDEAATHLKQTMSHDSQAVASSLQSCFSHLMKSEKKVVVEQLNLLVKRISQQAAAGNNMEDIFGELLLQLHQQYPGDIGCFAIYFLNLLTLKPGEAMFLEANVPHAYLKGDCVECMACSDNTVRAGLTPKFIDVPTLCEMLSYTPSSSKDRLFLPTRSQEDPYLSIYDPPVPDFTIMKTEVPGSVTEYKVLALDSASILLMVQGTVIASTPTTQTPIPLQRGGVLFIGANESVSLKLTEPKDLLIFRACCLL

[17] = target: T5, Endoribonuclease toxin MazF (Escherichia coli K-12, UniProt P0AE70); test: activation of MazEF endoribonuclease cleavage – biochemical, fluorescence, single-stranded RNA substrate, uHTS hits, dose response (AID 588481); assay type: functional
T5 sequence (P0AE70 whole entry): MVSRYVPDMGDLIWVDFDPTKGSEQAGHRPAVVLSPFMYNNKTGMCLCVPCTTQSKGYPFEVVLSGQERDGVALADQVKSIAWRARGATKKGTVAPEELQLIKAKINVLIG

[18] = target: T5, Endoribonuclease toxin MazF; test: substrate-only fluorescence increase artefacts – biochemical, single-stranded RNase substrate, counter-screen for MazEF activator project, dose response (AID 588502); assay type: functional
[19] = Luminescence Cell-Based Dose Retest to Confirm Inhibitors of Cancer Stem Cells. [Related pubchem assays (depositor defined):AID2717, AID2721]; assay type: functional; conditions: Homo sapiens
cells = conditions: HEK293
ORF 73 = ORF 73 (Human herpesvirus 8, UniProt O40947); test: KSHV LANA DNA-binding disruption – biochemical, fluorescence polarization, cherry-picked samples, dose response (AID 504725); design: species or system Human gammaherpesvirus 8;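 further: fluorescence polarization of a labeled DNA duplex reporting LANA DNA binding; potency is for inhibitors that block LANA binding to the DNA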
Sequence of ORF 73 (O40947 whole entry): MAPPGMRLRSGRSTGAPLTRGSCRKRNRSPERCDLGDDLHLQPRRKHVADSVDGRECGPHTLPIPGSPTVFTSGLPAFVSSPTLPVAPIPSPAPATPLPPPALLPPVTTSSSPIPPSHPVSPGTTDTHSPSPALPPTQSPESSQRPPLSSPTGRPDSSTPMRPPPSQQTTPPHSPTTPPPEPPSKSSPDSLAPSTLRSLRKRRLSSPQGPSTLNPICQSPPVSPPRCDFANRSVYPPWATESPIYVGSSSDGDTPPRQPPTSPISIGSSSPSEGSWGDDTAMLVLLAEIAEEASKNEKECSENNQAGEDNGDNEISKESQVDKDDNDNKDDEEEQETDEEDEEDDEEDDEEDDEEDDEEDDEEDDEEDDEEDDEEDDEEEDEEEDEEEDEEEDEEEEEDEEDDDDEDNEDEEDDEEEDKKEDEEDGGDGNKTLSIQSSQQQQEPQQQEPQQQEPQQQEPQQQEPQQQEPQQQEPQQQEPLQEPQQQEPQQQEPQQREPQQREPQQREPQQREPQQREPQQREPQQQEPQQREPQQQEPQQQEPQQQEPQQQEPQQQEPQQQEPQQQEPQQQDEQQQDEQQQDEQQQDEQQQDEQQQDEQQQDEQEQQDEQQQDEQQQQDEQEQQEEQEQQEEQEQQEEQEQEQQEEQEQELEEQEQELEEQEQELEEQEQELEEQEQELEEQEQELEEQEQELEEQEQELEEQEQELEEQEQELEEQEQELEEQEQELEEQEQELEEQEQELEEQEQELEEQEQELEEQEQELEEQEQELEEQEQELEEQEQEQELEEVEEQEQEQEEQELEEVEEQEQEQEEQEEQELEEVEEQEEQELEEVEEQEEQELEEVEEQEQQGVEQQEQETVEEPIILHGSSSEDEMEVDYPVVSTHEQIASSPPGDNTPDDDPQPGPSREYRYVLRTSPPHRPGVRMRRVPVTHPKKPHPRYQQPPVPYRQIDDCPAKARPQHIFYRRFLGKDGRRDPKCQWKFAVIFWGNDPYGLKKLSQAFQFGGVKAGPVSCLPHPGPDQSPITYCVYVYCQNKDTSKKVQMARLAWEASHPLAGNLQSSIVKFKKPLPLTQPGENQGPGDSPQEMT

CCN1CCN(CCNC(=O)c2ccc(/C=C3/Sc4ccccc4N(Cc4ccccc4C)C3=O)cc2)CC1
EC50 (BJ [1]): 13.7 µM (active) | EC50 (BJ [2]): > 150 µM (inconclusive) | EC50 (BJ [3]): > 133 µM (inconclusive) | EC50 (BJ [4]): 6.6 µM (active) | EC50 [5]: 9.43 µM (active)

CCN(CC)C(=O)C1CCCc2c1[nH]c1ccc(Cl)cc21 (stereo not drawn)
IC50 (Vero [6]): 3.28 µM (active) | CC50 (Vero [7]): > 25 µM (active)

CS(=O)(=O)c1ncc(Cl)c(C(=O)Nc2ccc(OC(F)F)cc2)n1
EC50 [8]: 1.52 µM (active) | IC50 (Beta Lactamase): 6.65 µM (active) | AC50 [9]: 0.682 µM (active) | EC50 (Beta-galactosidase): > 40 µM (inactive) | AC50 (INS1): 8.07 µM (active) | IC50 (CHO): 2.17 µM (active) | AC50 (HEK293): 7.88 µM (active) | EC50 (Protein RecA): 3.72 µM (active) | IC50 [10]: 7.79 µM (active) | AC50 [11]: 3.68 µM (active) | AC50 [12]: 7.27 µM (active) | AC50 [13]: 22.1 µM (active) | EC50 [14]: 4.44 µM (active)

COc1ccc(N=Nc2nc3cc(Br)c(Br)cc3n2C)c(OC)c1
AC50 [15]: 247 µM (active) | AC50 (Keap1/Nrf2): > 52 µM (inactive)

CC1CCN(c2ccc3c(c2)S(=O)(=O)c2ccccc2C3=O)CC1
AC50 (HeLa): 39.7 µM (active)

CN(C)CCCNc1ncnc2c1c(-c1ccccc1)cn2-c1ccccc1
IC50 (Vero [6]): 23.9 µM (active) | CC50 (Vero [7]): > 25 µM (active)

Fc1ccc(/N=c2\ssnc2Cl)cc1
IC50 (Phosphomannomutase 2): > 100 µM (inactive) | IC50 [16]: 11.6 µM (active)

Clc1ccc(Nc2ccccc2/N=c2\ssnc2Cl)cc1
IC50 (Phosphomannomutase 2): > 100 µM (inactive) | IC50 [16]: 9.77 µM (active)

O=C(N/N=C/c1cccnc1)c1ccc(NC(=O)C(c2ccccc2)c2ccccc2)cc1
EC50 [17]: 40.8 µM (inactive) | AC50 (INS1): 0.578 µM (active) | EC50 (BJ [1]): 0.949 µM (inconclusive) | EC50 (BJ [2]): > 150 µM (not active) | EC50 (BJ [3]): > 66.7 µM (inactive) | EC50 [18]: > 99 µM (inactive) | EC50 (BJ [4]): > 150 µM (not active) | EC50 [5]: > 150 µM (not active)

CCN(CC)c1ccc2cc(S(=O)(=O)c3ccc(Cl)cc3)c(=O)oc2c1
AC50 [15]: 10.8 µM (active) | AC50 [19]: 0.246 µM (active) | AC50 (cells): 35.7 µM (active) | AC50 (ORF 73): 19.1 µM (active) | AC50 (Keap1/Nrf2): 11.8 µM (active)

Cc1cc(C)n(-c2nnc(NC(C)(C)C)nn2)n1
AC50 (HeLa): 62.6 µM (active)
